Laboratory results: ChEMBL document CHEMBL5214951, “Isatoic anhydrides as novel inhibitors of monoamine oxidase” (Bioorg Med Chem, 2022)

Tests used:
[1] = target: T1, Amine oxidase [flavin-containing] B (Homo sapiens, UniProt P27338)
T1 sequence (P27338 whole entry): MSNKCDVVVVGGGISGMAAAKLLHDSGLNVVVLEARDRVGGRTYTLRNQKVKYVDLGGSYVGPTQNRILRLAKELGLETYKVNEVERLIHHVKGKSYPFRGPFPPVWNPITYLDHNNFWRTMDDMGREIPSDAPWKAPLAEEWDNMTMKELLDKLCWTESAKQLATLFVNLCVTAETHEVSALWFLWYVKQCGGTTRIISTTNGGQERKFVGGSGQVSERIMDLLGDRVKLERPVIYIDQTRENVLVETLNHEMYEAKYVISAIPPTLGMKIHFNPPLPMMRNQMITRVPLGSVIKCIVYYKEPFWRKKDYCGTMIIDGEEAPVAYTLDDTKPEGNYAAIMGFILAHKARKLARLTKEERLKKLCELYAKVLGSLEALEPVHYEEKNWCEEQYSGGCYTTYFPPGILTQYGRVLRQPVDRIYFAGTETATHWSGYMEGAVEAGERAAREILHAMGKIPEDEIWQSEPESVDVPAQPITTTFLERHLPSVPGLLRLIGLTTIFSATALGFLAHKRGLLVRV

[2] = target: T1, Amine oxidase [flavin-containing] B; assay: Competitive inhibition of human recombinant MAO-B assessed as inhibitory constant using varying levels of kynuramine as substrate by Lineweaver-burk plot analysis
[3] = target: T2, Amine oxidase [flavin-containing] A (Homo sapiens, UniProt P21397)
T2 sequence (P21397 whole entry): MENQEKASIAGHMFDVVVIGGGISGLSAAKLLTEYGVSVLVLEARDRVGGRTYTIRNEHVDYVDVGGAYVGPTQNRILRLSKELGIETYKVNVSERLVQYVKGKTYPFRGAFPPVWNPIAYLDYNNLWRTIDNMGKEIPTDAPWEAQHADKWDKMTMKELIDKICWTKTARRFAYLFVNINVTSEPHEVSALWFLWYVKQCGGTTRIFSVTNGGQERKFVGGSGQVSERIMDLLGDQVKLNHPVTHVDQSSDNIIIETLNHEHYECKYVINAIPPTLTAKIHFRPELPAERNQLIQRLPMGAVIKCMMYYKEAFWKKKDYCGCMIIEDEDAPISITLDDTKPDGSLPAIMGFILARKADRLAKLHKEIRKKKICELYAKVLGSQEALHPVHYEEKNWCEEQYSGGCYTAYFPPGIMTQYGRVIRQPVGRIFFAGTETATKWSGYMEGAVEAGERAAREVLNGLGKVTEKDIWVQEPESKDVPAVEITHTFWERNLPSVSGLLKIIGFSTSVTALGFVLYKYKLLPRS

[4] = target: T2, Amine oxidase [flavin-containing] A; assay: Competitive inhibition of human recombinant MAO-A assessed as inhibitory constant using varying levels of kynuramine as substrate by Lineweaver-burk plot analysis
Acetylcholinesterase = Acetylcholinesterase (Homo sapiens, UniProt P22303); assay: Inhibition of human recombinant AChE using S-acetylthiocholine as substrate by DTNB reagent based spectrophotometric analysis
D-amino-acid oxidase = D-amino-acid oxidase (Sus scrofa, UniProt P00371); assay: Inhibition of porcine kidney DAAO using D-serine as substrate by Amplex red and horseradish peroxidase fluorescence assay
Cholinesterase = Cholinesterase (Equus caballus, UniProt P81908)
Chain of Cholinesterase (P81908 whole entry): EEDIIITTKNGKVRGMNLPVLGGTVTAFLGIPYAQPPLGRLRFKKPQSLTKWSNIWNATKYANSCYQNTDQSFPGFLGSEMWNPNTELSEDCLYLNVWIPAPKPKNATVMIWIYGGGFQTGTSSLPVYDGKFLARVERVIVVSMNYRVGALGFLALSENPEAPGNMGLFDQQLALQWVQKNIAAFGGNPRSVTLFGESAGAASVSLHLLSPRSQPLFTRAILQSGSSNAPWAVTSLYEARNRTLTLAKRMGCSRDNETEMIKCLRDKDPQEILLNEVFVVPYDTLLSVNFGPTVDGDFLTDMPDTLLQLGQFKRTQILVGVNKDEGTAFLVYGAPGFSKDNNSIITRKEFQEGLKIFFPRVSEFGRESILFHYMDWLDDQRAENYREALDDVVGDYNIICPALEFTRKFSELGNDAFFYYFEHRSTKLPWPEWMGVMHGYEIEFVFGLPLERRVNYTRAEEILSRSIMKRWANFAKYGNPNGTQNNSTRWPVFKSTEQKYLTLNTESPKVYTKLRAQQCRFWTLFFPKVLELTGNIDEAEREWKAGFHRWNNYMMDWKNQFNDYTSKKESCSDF
Description: Inhibition of equine serum BuChE using S-butyrylthiocholine as substrate at by DTNB reagent based spectrophotometric analysis

Chain of Acetylcholinesterase (P22303 whole entry): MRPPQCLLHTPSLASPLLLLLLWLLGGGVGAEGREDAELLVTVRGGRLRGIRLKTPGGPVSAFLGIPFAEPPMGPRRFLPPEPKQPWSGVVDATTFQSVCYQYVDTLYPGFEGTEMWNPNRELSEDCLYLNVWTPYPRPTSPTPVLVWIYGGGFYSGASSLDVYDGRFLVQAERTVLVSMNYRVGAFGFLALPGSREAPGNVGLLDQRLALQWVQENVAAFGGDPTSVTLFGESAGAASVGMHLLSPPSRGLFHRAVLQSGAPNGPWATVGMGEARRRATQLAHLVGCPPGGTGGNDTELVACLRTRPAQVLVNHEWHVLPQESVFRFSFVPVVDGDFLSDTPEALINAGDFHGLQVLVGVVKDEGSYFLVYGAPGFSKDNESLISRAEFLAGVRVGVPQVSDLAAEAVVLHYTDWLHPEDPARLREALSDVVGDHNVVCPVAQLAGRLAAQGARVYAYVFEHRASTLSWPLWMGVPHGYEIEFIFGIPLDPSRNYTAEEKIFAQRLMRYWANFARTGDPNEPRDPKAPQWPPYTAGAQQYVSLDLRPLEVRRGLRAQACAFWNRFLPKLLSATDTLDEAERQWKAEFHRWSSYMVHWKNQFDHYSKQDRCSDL
Chain of D-amino-acid oxidase (P00371 whole entry): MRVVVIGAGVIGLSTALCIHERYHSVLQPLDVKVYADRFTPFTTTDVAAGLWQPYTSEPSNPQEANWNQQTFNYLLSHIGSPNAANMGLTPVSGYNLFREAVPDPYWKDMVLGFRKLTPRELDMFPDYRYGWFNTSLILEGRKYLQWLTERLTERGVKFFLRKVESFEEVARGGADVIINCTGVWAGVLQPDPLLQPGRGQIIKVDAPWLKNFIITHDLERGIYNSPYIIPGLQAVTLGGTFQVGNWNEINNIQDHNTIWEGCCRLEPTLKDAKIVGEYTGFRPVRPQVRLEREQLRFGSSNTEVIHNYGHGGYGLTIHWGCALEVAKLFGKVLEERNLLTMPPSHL

| Compound | IC50 [1] | Ki [2] | IC50 [3] | Ki [4] | IC50 (Acetylcholinesterase) | IC50 (D-amino-acid oxidase) | IC50 (Cholinesterase) |
| --- | --- | --- | --- | --- | --- | --- | --- |
| O=c1[nH]c2ccc(OCc3ccccc3)cc2c(=O)o1 | 73 nM | 4.3 nM | 132 nM | 52 nM |  |  |  |
| O=c1[nH]c2ccc(OCc3cccc(Br)c3)cc2c(=O)o1 | 11 nM |  | 59 nM |  |  |  |  |
| O=c1[nH]c2ccc(OCc3ccc(F)cc3)cc2c(=O)o1 | 15 nM |  | 122 nM |  | 76200 nM |  |  |
| Cc1cc(C(=O)O)n[nH]1 |  |  |  |  |  | 933 nM |  |
| COc1cccc(COc2ccc3[nH]c(=O)oc(=O)c3c2)c1 | 18 nM |  | 94 nM |  |  |  |  |
| O=c1[nH]c2ccc(OCc3ccc(Br)cc3)cc2c(=O)o1 | 6.9 nM |  | 9.5 nM |  |  |  | 19800 nM |
| Cc1ccc(COc2ccc3[nH]c(=O)oc(=O)c3c2)cc1 | 6.4 nM |  | 61 nM |  |  |  | 19100 nM |
| O=c1[nH]c2ccc(OCc3cccc(I)c3)cc2c(=O)o1 | 14 nM |  | 43 nM |  |  |  |  |
| CC(C)c1ccc(COc2ccc3[nH]c(=O)oc(=O)c3c2)cc1 | 76 nM |  | 10 nM |  | 55000 nM |  | 21100 nM |
| O=c1[nH]c2ccc(OCc3ccc4ccccc4c3)cc2c(=O)o1 | 20 nM |  | 65 nM |  |  |  | 16600 nM |
| O=c1[nH]c2ccc(OCc3cccc(C(F)(F)F)c3)cc2c(=O)o1 | 4.7 nM |  | 83 nM |  |  |  |  |
| COc1cc(/C=C/C(=O)CC(=O)/C=C/c2ccc(O)c(OC)c2)ccc1O [CURCUMIN] |  |  |  |  |  | 1070 nM |  |
